In one data set the target is T1, DA transporter(h) (Homo sapiens, UniProt Q01959).
T1 construct: expressed in transfected cells; host or cells: CHO cells
Put plainly: DA transporter(h) binding assay.

The target of the next data set is Phosphodiesterase 1. Put plainly: Phosphodiesterase 1 enzyme assay. The settings on record: reference compound, Phosphodiesterase 1. Format: biochemical, bovine.
Data set [1] has as its target Ca^2+ channel (L, diltiazem site) (benzothiazepines) (Rattus norvegicus, UniProt P22002). Put plainly: Ca^2+ channel (L, diltiazem site) binding assay.
The target in a further data set is T2, Phosphodiesterase 5(h) (Homo sapiens, UniProt O76074).
T2 construct: human platelets; from tissue; host or cells: human platelets
Put plainly: Phosphodiesterase 5(h) enzyme assay. Format: biochemical. The settings on record: Hill coefficient, Phosphodiesterase 5(h).

Data set [2] concerns the target Cytochrome P450 (CYP) (Homo sapiens, UniProt P05177).
In the next data set the target is T3, 5-HT transporter(h) (Homo sapiens, UniProt P31645).
T3 construct: expressed in transfected cells; host or cells: HEK-293 cells
Put plainly: 5-HT transporter(h) binding assay. The settings on record: Hill coefficient, reference compound.

The next data set addresses Phosphodiesterase 3(h) (Homo sapiens, UniProt Q14432). Put plainly: Phosphodiesterase 3(h) enzyme assay. It counts as biochemical. The settings on record: Hill coefficient, Phosphodiesterase 3(h).
The target of the next data set is T4, Acetylcholinesterase(h) (Homo sapiens, UniProt P22303).
T4 construct: host or cells: HEK-293 cells
Put plainly: Acetylcholinesterase(h) enzyme assay. Format: biochemical. The settings on record: Hill coefficient, Acetylcholinesterase(h).

A further data set relates to Cl-channel. Put plainly: Cl-channel binding assay. Further details: species or system rat. The settings on record: Hill coefficient, reference compound.
The subject of the next data set is α1 (non-selective). Put plainly: α1 (non-selective) binding assay. Further details: species or system rat.
Another data set concerns the target T5, NE transporter(h) (Homo sapiens, UniProt P23975).
T5 construct: expressed in transfected cells; host or cells: MDCK cells
Put plainly: NE transporter(h) binding assay. The settings on record: Hill coefficient, reference compound.

Data set [3] has as its target Cytochrome P450 (CYP) (Homo sapiens, UniProt P10635). Put plainly: ADME-Tox: In vitro Metabolism (Cytochrome P450, fluorogenic substrates BFC, CEC, MFC). The settings on record: Hill coefficient, CYP2D6 Inhibition (7-MFC substrate).
Data set [4] deals with Cytochrome P450 (CYP) (Homo sapiens, UniProt P11712). The data set is described as above. The settings on record: Hill coefficient, CYP2C9 Inhibition (7-MFC substrate).
Data set [5] addresses Catechol-O-methyl transferase. Put plainly: Catechol-O-methyl transferase enzyme assay. Format: biochemical, porcine. The settings on record: reference compound, Catechol-O-methyl transferase.
Data set [6] deals with chronic colitis provoked by trinitrobenzene sulphonic acid (TNBS). Put plainly: Rat model of chronic colitis provoked by TNBS over 14 days, treatment from Day 1. Format: in vivo. The settings on record: 3 mg/kg i.v. on Day 1 and Day 7. The text has this: In the chronic model of colitis, assessment of the colonic inflammation is made 14 days or longer, after the intracolonic challenge with TNBS (Boughton-Smith et al, 1988a, 1988b; Wallace et al, 1989; Rachmilewitz et al, 1989; Wallace and Keenan, 1990; Ameho et al, 1987; Sans et al, 1999; Sun et al, 2001; Maric et al, 2003; Moreels et al, 2004; Gonzalez et al, 2004). This model allows treatment with experimental agents to commence following the establishment of the colonic injury, typically 24 hours after the TNBS challenge (Galvez et al, 2000, Villegas, 2003, Gonzalez et al, 2004). The model should therefore identify the ability of the experimental compounds to accelerate the diminution of the inflammatory response and to promote healing of the colonic lesions. This model thus has relevance additional to the acute model, as the clinical correlate is the therapeutic intervention in patients with existing IBD not in remission or with flare-up, to reduce the crisis. This contrasts with the acute TNBS model where the compounds are administered one or two days prior to challenge, the clinical correlate being the use of prophylactic therapy to prevent flare-up and maintain remission in IBD patients.
In this current study, the low intracolonic challenge concentration of TNBS used in the acute studies was also used for the chronic study over a 14 day period. This concentration and timing was based on the findings from pilot studies where a range of concentrations of TNBS and treatment conditions were evaluated over a 14 day period. […].
The methods and protocol used were substantially similar to those in Example 39-40, with some differences described below.
TNBS Challenge. Male Wistar rats (average body weight, 210 g) were randomised into groups before commencement of the study. In all groups, including the non-challenged and non-treated absolute control group, food was withdrawn for 12 h before TNBS administration (i.e. overnight on Day −1), but the rats were allowed free access to drinking water.
On the morning of the day of challenge (Day 0, between 9.00 and 1 1.00 a.m.), the rats were transiently anaesthetised with ether and the TNBS solution (10 mg in 0.25 ml of 50% ethanol) was instilled approximately 6-8 cm into the colon using a soft plastic catheter inserted in the rat rectum. The rats were allowed to recover with free access to food and drinking water. At the end of the experiment, on the morning of Day 14, between 9.00 and 11.00), the colon was dissected, and the distal 8 cm photographed and immediately processed or stored appropriately for subsequent analyses.
The following primary parameters were measured in the study: macroscopic scoring of distal 8 cm of colon; myeloperoxidase levels in segments of distal 8 cm of colon; TNF-α levels in segments of distal 8 cm of colon.
In addition, the weight of the standard colonic segment was assessed as an indirect and non-specific marker of oedema. The body weight of the animals was also determined each evening of the study, starting on Day-1, and also on the morning of Day 14. The data is shown graphically as the % change from the weight on Day-1, prior to challenge.
Treatments. The TNBS challenged groups for study were: (a) Vehicle control 0.5% carboxy methyl cellulose (CMC) p.o., twice daily from Day; (b) CCI-7506 25 mg/kg, p.o., twice daily from Day 1 (50 mg/kg/day total); (c) CCI-7506 50 mg/kg, p.o., twice daily from Day 1 (100 mg/kg/day total); (d) CCI-7507 12.5 mg/kg, p.o., twice daily from Day 1 (25 mg/kg/day total); (e) CCI-7507 25 mg/kg, p.o., twice daily from Day 1(50 mg/kg/day total); […]; (g) Infliximab 3 mg/kg, single slow i.v. injection, on Day 1 and Day7.
The experimental compounds that were administered orally were given twice a day from Day 1, i.e. 24 h following TNBS administration, for the remainder of the 14 day experimental period. Infliximab was administered by slow i.v. injection of Day 1 and on Day 7. […]

Another data set deals with TNBS colitis. The settings on record: single intravenous dose pre-treatment; 8 days after TNBS challenge; cited from earlier work.

Broadly, the IC50 is the concentration that inhibits the measured activity by half. A high value points to a need for much substance.

Sequence of Cytochrome P450 (CYP) (Homo sapiens, UniProt P10635) (P10635 whole entry): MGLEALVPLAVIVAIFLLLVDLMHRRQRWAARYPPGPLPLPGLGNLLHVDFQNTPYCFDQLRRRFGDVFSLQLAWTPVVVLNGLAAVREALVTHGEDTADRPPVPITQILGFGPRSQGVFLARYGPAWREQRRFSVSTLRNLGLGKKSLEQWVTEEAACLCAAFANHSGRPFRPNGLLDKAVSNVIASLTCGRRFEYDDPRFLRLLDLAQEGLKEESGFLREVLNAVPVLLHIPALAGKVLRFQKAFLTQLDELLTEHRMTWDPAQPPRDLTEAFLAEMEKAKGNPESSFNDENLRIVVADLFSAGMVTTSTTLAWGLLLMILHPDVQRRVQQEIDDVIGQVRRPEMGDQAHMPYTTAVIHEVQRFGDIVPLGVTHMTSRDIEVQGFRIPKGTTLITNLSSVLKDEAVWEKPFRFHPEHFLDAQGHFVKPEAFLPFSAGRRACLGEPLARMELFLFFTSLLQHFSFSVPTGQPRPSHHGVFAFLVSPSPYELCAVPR
Sequence of Cytochrome P450 (CYP) (Homo sapiens, UniProt P05177) (P05177 whole entry): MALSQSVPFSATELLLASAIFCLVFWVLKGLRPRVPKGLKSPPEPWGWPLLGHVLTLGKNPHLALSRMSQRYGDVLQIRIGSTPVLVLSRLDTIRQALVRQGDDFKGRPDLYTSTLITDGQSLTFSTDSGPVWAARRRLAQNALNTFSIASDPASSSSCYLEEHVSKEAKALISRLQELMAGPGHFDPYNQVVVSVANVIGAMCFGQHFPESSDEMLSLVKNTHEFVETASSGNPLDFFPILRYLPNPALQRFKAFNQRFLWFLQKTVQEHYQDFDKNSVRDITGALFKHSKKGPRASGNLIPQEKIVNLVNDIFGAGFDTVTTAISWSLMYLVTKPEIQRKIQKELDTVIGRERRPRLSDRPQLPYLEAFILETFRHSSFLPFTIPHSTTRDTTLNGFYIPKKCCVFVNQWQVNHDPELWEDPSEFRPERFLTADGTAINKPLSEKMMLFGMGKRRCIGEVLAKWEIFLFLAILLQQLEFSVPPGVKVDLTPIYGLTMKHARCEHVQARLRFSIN
Sequence of Cytochrome P450 (CYP) (Homo sapiens, UniProt P11712) (P11712 whole entry): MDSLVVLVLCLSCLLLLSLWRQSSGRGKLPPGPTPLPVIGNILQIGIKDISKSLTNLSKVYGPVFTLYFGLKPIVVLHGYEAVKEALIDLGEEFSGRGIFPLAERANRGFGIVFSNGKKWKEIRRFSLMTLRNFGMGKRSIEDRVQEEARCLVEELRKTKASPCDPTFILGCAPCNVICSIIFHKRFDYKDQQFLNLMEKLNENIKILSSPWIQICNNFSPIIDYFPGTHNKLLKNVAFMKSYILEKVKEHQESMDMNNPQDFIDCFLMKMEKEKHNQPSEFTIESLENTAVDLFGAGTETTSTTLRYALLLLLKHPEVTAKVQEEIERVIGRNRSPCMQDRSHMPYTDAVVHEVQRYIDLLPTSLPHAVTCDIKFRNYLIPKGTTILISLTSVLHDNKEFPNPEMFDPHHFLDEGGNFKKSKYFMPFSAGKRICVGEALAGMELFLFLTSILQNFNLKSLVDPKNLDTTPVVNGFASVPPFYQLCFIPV
Sequence of Catechol-O-methyl transferase (Q99028 whole entry): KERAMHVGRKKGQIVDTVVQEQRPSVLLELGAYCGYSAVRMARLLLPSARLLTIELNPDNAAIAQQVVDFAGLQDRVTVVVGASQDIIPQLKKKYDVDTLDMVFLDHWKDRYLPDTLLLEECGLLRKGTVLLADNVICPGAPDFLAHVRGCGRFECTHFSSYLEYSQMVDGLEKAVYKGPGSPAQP
T3 sequence (P31645 whole entry): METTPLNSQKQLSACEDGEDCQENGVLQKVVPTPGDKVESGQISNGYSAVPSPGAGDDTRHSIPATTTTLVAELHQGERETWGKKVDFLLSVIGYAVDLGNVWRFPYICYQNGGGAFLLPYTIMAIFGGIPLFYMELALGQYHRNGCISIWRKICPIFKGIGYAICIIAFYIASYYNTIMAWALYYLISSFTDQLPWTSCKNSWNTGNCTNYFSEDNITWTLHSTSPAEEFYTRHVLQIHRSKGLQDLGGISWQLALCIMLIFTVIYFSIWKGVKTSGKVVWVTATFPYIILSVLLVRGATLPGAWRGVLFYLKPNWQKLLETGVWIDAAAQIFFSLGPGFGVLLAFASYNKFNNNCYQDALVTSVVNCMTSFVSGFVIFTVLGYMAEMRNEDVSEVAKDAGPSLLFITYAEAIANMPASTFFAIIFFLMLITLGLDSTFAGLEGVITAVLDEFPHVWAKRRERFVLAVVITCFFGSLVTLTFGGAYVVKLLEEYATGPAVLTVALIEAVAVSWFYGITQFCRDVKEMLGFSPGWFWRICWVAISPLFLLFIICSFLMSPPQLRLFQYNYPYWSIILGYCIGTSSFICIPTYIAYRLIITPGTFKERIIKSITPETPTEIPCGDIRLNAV
Sequence of Ca^2+ channel (L, diltiazem site) (benzothiazepines) (P22002 whole entry): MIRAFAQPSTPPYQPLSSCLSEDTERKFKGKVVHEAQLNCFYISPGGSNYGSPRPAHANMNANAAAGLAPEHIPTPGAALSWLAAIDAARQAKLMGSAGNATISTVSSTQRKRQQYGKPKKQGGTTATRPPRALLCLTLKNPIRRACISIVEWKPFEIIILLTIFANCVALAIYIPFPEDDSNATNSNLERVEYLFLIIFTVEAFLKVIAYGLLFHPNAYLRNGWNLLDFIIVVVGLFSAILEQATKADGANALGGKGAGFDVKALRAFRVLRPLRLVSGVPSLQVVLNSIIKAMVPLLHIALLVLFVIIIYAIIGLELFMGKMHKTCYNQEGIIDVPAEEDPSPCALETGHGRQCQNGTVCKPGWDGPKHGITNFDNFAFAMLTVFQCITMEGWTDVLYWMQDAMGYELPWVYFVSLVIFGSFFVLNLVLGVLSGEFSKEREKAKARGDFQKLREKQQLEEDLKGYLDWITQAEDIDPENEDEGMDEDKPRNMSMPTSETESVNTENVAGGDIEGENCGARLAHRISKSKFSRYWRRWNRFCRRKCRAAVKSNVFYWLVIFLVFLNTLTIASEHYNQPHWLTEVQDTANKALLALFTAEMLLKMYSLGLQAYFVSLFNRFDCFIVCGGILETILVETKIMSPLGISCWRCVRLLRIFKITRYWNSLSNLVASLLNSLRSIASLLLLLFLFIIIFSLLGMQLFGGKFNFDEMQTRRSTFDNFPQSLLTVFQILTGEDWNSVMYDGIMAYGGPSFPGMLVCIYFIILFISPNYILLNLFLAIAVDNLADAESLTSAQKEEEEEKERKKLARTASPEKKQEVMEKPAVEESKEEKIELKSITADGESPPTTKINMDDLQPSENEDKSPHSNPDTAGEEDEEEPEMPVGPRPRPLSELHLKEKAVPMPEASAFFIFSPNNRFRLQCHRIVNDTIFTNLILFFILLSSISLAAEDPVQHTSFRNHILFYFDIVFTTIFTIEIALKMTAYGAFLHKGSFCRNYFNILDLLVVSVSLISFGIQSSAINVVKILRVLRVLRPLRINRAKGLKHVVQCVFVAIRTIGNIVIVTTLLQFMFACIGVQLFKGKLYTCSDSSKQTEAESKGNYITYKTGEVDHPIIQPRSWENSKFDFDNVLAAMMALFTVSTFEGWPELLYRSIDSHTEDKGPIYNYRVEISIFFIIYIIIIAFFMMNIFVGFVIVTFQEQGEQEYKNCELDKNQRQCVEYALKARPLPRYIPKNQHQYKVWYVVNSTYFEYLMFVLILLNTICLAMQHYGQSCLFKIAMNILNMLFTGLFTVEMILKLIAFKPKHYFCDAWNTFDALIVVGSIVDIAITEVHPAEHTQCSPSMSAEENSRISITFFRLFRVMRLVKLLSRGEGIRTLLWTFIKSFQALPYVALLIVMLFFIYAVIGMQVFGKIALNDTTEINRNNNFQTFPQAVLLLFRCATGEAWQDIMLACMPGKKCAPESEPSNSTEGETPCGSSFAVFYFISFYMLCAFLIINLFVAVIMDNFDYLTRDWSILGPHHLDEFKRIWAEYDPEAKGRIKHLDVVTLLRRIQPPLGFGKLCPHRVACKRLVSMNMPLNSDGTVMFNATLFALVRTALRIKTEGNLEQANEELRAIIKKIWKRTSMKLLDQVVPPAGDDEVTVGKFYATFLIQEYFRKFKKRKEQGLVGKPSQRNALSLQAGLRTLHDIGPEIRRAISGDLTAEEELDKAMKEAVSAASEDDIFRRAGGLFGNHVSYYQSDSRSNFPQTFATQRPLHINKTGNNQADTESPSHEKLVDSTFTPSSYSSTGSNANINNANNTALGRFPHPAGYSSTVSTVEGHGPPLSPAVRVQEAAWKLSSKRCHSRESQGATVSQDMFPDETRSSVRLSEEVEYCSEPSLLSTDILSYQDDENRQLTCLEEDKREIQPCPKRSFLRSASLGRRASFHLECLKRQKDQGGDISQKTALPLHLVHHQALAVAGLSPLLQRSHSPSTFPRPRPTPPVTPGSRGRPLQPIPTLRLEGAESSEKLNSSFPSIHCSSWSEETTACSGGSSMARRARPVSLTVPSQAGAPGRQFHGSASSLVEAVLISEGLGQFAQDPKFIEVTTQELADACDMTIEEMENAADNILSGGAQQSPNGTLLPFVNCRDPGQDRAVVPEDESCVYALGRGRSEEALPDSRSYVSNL
Sequence of Phosphodiesterase 3(h) (Q14432 674-1093 limits assumed): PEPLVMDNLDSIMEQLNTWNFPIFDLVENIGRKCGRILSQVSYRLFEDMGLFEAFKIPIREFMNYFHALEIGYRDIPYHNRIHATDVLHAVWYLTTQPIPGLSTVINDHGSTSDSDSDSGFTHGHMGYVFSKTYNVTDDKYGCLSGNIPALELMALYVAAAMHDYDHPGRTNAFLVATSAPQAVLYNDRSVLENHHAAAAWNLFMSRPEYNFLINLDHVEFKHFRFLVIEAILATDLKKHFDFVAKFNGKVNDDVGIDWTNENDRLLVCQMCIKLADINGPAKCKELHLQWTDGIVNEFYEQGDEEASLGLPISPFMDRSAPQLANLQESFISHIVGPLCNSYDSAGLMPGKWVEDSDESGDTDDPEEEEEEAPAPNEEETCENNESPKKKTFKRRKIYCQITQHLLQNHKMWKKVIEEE

On DA transporter(h), `c1ccc2sc(C3(N4CCCCC4)CCCCC3)cc2c1` [BTCP, reference compound] showed a nH of 0.5.
Compound `COc1nc2c([nH]1)c(=O)n(C)c(=O)n2CC(C)C` [Example 8-methoxy-IBMX] registered an IC50 on Phosphodiesterase 1 of 2.4 µM.
Compound `COc1ccc([C@@H]2Sc3ccccc3N(CCN(C)C)C(=O)[C@@H]2OC(C)=O)cc1` [diltiazem, reference compound] had a nH in data set [1] of 0.9.
At Phosphodiesterase 5(h), `OCCN(CCO)c1nc(N2CCCCC2)c2nc(N(CCO)CCO)nc(N3CCCCC3)c2n1` [dipyridamole] showed a nH of 1.5.
Consider `Cc1nc2c([nH]1)c(=O)n(C)c(=O)n2Cc1ccco1` [furafylline], for which the nH at Cytochrome P450 (CYP) [2] is 0.6.
As to `CN(C)CCCN1c2ccccc2CCc2ccccc21` [imipramine, reference compound], the nH on 5-HT transporter(h) is 1.0.
Turning to `Cc1[nH]c(=O)c(C#N)cc1-c1ccncc1` [milrinone], the nH on Phosphodiesterase 3(h) is given as 0.8.
Take `CN(C)C(=O)Oc1cccc([N+](C)(C)C)c1` [neostigmine]: the nH at Acetylcholinesterase(h) is reported as 1.5.
In the case of `C=C(C)[C@@H]1[C@H]2OC(=O)[C@@H]1[C@]1(O)C[C@H]3O[C@]34C(=O)O[C@H]2[C@]14C` [picrotoxinin, reference compound], the nH with Cl-channel amounted to 0.9.
The compound `COc1cc2nc(N3CCN(C(=O)c4ccco4)CC3)nc(N)c2cc1OC` [prazosin, reference compound] showed a nH in the data set on α1 (non-selective) of 1.6.
For the compound `CNCCCC1c2ccccc2C=Cc2ccccc21` [protriptyline, reference compound], on NE transporter(h), the nH was determined as 1.7.
Compound `C=C[C@H]1C[N@@]2CC[C@H]1C[C@@H]2[C@@H](O)c1ccnc2ccc(OC)cc12` [quinidine] registered a nH at Cytochrome P450 (CYP) [3] of 0.9.
Compound `Nc1ccc(S(=O)(=O)Nc2ccnn2-c2ccccc2)cc1` [sulfaphenazole] came in with a nH on Cytochrome P450 (CYP) [4] of 1.0.
Compound Ro 41-0960 showed an IC50 in data set [5] of 0.051 µM.
In the case of infliximab, the “macroscopic Damage Score” value in data set [6] (Day 14) was “reduced the damage score”. In data set [6] (Day 14, vs CMC group), the “reduction in colon weight” value was “significant (P<0.05) reduction in colon weight”, the “reduction in colonic MPO activity” value is recorded as “significantly attenuated the increase in MPO”, the “reduction in colonic TNF-α levels” value was “significantly attenuated the increase in TNF-α levels” and the “reduction in colonic lesion area (% of the total area measured)” value is on record as “significantly attenuated the area of injury”. Also, the “attenuation of TNBS-induced fall in body weight (% change of body weight at Day −1)” value in [6] (over 14 days, vs CMC group) is “significant on Day 2 and 3”. The “macroscopic injury, colonic MPO and TNF-α levels” value in the data set on TNBS colitis is “found to reduce the macroscopic injury, colonic MPO and TNF-α levels”.

Values taken from patent US20090264384A1, “INDOLE, BENZIMIDAZOLE, AND BENZOLACTAM BORONIC ACID COMPOUNDS, ANALOGS THEREOF AND METHODS OF USE THEREOF” (Nuada, Inc., priority 2004, published 2009).
